Measured values taken from ChEMBL document CHEMBL3797087, “Synthesis of novel triazole/isoxazole functionalized 7-(trifluoromethyl)pyrido[2,3-d]pyrimidine derivatives as promising anticancer and antibacterial agents” (2016).
≈ marks a conversion by molar mass, not a printed value.

Experiments:
Assay type in all cases: functional
MDA-MB-231 = assay: Anticancer activity against human MDA-MB-231 cells after 48 hrs by SRB assay; details: MDA-MB-231, 48 h
HeLa = assay: Anticancer activity against human HeLa cells after 48 hrs by SRB assay
[1] = Anticancer activity against human PANC1 cells after 48 hrs by SRB assay; details: PANC-1, 48 h
A549 = assay: Anticancer activity against human A549 cells after 48 hrs by SRB assay; details: A549, 48 h
Bacillus licheniformis [2] = assay: Antibacterial activity against Bacillus licheniformis after 24 hrs by agar diffusion assay
Staphylococcus aureus [3] = assay: Antibacterial activity against Staphylococcus aureus after 24 hrs by agar diffusion assay
Streptococcus pneumoniae [4] = assay: Antibacterial activity against Streptococcus pneumoniae after 24 hrs by agar diffusion assay
Escherichia coli [5] = assay: Antibacterial activity against Escherichia coli after 24 hrs by agar diffusion assay
Klebsiella pneumoniae [6] = assay: Antibacterial activity against Klebsiella pneumoniae after 24 hrs by agar diffusion assay
Pseudomonas aeruginosa [7] = assay: Antibacterial activity against Pseudomonas aeruginosa after 24 hrs by agar diffusion assay
Pseudomonas aeruginosa [8] = assay: Antibacterial activity against Pseudomonas aeruginosa after 24 to 48 hrs
Escherichia coli [9] = assay: Antibacterial activity against Escherichia coli after 24 to 48 hrs
Staphylococcus aureus [10] = assay: Antibacterial activity against Staphylococcus aureus after 24 to 48 hrs
Klebsiella pneumoniae [11] = assay: Antibacterial activity against Klebsiella pneumoniae after 24 to 48 hrs
Streptococcus pneumoniae [12] = assay: Antibacterial activity against Streptococcus pneumoniae after 24 to 48 hrs
Bacillus licheniformis [13] = assay: Antibacterial activity against Bacillus licheniformis after 24 to 48 hrs

Structure (SMILES)	GI50 (MDA-MB-231) [nM]	GI50 (HeLa) [nM]	GI50 [1] [nM]	GI50 (A549) [nM]	inhibition zone (IZ) (Bacillus licheniformis [2]) [mm]	inhibition zone (IZ) (Staphylococcus aureus [3]) [mm]	inhibition zone (IZ) (Streptococcus pneumoniae [4]) [mm]	inhibition zone (IZ) (Escherichia coli [5]) [mm]	inhibition zone (IZ) (Klebsiella pneumoniae [6]) [mm]	inhibition zone (IZ) (Pseudomonas aeruginosa [7]) [mm]	MIC (Pseudomonas aeruginosa [8]) [µg/mL]	MIC (Escherichia coli [9]) [µg/mL]	MIC (Staphylococcus aureus [10]) [µg/mL]	MIC (Klebsiella pneumoniae [11]) [µg/mL]	MIC (Streptococcus pneumoniae [12]) [µg/mL]	MIC (Bacillus licheniformis [13]) [µg/mL]
CCc1nc2nc(C(F)(F)F)ccc2c(=O)n1Cc1cn(CCC(F)(F)C(F)(F)C(F)(F)C(F)(F)C(F)(F)C(F)(F)F)nn1	2830	930	730	30												
O=c1c2ccc(C(F)(F)F)nc2nc(-c2ccccc2)n1Cc1cn(-c2ccc([N+](=O)[O-])cc2)nn1	1240	860	2550	770												
CCCCCCCCCCn1cc(COc2nc(-c3ccccc3)nc3nc(C(F)(F)F)ccc23)nn1	1050	1040	490	2310	8	10	16									
CCc1nc2nc(C(F)(F)F)ccc2c(=O)n1Cc1cn(CC(=O)Nc2ccccc2)nn1	1700	860	320	5260												
CCCCCCCCCCn1cc(Cn2c(-c3ccco3)nc3nc(C(F)(F)F)ccc3c2=O)nn1	1100	870	3180	200												
FC(F)(F)c1ccc2c(OCc3cn(CCC(F)(F)C(F)(F)C(F)(F)C(F)(F)C(F)(F)C(F)(F)F)nn3)nc(-c3ccccc3)nc2n1	520	1200	2990	1910												
O=c1c2ccc(C(F)(F)F)nc2ncn1Cc1cn(-c2ccc([N+](=O)[O-])cc2)nn1	140	890	1890	300												
O=C(Cn1cc(COc2nc(-c3ccccc3)nc3nc(C(F)(F)F)ccc23)nn1)Nc1ccccc1	650	890	4500	140												
O=c1c2ccc(C(F)(F)F)nc2ncn1Cc1cc(-c2ccc(Br)cc2)no1	710	1240	1160	3810												
CCCCCCCCn1cc(Cn2c(CC)nc3nc(C(F)(F)F)ccc3c2=O)nn1	1340	1270	3280	2870	8	9	6	7	7	7						
O=c1c2ccc(C(F)(F)F)nc2ncn1Cc1cc(-c2ccc(Cl)cc2)no1	870	840	7080	1090												
O=c1c2ccc(C(F)(F)F)nc2nc(-c2ccccc2)n1Cc1cn(CCC(F)(F)C(F)(F)C(F)(F)C(F)(F)C(F)(F)C(F)(F)F)nn1	9890	870	2950	520												
O=c1c2ccc(C(F)(F)F)nc2nc(-c2ccccc2)n1Cc1cc(-c2cccc3ccccc23)no1	1010	910	140	3140												
COc1cc(-n2cc(COc3nc(-c4ccccc4)nc4nc(C(F)(F)F)ccc34)nn2)cc(OC)c1OC	240	890	820	4050												
CCCCCCCCCCn1cc(Cn2c(CC)nc3nc(C(F)(F)F)ccc3c2=O)nn1	2210	810	20	860	21	15	28	25	19	16	12.5 (≈ 26.9 µM)	25 (≈ 53.8 µM)	12.5 (≈ 26.9 µM)	25 (≈ 53.8 µM)	12.5 (≈ 26.9 µM)	12.5 (≈ 26.9 µM)
CCCCCCCCn1cc(COc2nc(-c3ccccc3)nc3nc(C(F)(F)F)ccc23)nn1	570	950	2660	5330	21	22	26	8					12.5 (≈ 25.8 µM)		12.5 (≈ 25.8 µM)	25 (≈ 51.6 µM)
O=C(O)c1cn(C2CC2)c2cc(N3CCNCC3)c(F)cc2c1=O [CIPROFLOXACIN]					24	25	23		22	25		12.5 (≈ 37.7 µM)	12.5 (≈ 37.7 µM)	12.5 (≈ 37.7 µM)	12.5 (≈ 37.7 µM)	12.5 (≈ 37.7 µM)
COC(=O)Nc1nc2cc(C(=O)c3cccs3)ccc2[nH]1 [NOCODAZOLE]	42	63	29	80												
CO[C@H]1/C=C/O[C@@]2(C)Oc3c(C)c(O)c4c(O)c(c(/C=N/N5CCN(C)CC5)c(O)c4c3C2=O)NC(=O)/C(C)=C\C=C\[C@H](C)[C@H](O)[C@@H](C)[C@@H](O)[C@@H](C)[C@H](OC(C)=O)[C@@H]1C [RIFAMPIN]					24	25	25	27	27	29						
